Experimental data: US4539208A, “Combination of thienamycin-type antibiotics with dipeptidase inhibitors” (Merck & Co., Inc., priority 1981, dated 1985)

Experiments:
[1] = molecular target: T1, renal dipeptidase (E.C.3.4.13.11) (Sus scrofa, UniProt P22412); test: Inhibition of GDP (glycyldehydrophenylalanine) hydrolysis by solubilized renal dipeptidase; type: biochemical, hog (pig) kidney
T1 construct: solubilized preparation of dipeptidase isolated from hog kidneys; from tissue; host or cells: hog (pig) kidney
T1 sequence (P22412 17-409): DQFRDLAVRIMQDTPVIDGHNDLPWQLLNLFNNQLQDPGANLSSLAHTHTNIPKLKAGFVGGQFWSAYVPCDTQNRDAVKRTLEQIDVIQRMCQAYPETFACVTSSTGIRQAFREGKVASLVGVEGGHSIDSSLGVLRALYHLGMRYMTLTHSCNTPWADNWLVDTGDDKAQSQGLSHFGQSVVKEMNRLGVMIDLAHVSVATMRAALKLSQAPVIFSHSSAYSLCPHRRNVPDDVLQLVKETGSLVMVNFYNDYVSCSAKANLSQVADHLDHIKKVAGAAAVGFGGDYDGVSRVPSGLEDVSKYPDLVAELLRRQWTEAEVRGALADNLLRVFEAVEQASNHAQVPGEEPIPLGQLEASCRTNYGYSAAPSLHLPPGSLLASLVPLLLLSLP
Description: This measured the ability of compounds to inhibit hydrolysis of glycyldehydrophenylalanine (GDP) by a solubilized preparation of dipeptidase isolated from hog kidneys. The procedure is as follows: to a 1 ml. system containing 50 mM "MOPS" (3-(N-morpholino)propanesulfonic acid) buffer, pH 7.1, is added 5 μg of lyophilized enzyme, and the test compound at a final concentration of 0.1 mM. After a five minute incubation at 37° C., GDP is added to a final concentration of 0.05 mM. Incubation is continued for 10 minutes, at 37° C. and hydrolysis of GDP is measured by the change in optical density with time at 275 nm. Inhibition of the enzyme is gauged by comparison to a standard run containing no inhibitor and is expressed as the inhibitor binding constant, Ki.
A 1 ml. system of 50 mM "MOPS" buffer, pH 7.1, is used. To this is added 5 μg of the pig renal enzyme and an amount of the test compound to bring its final concentration to 0.1 mM. After a five minute incubation at 37° C., an amount of GDP is added to bring its final concentration to 0.05 mM. The system is again incubated for 10 minutes, at 37° C. Hydrolysis of GDP is measured by its change in optical density with time at 275 nm. Inhibition of the enzyme is gauged by comparison to a standard run containing no inhibitor and is presented as percent inhibition.

Staphalococcus aureus = test: Systemic efficacy of thienamycin with co-administered inhibitor, Staphylococcus aureus infection in mouse; type: in vivo; conditions: coadministered with thienamycin
[2] = 10^-4 M inhibitor, GDP 0.05 mM, pH 7.1, 37° C.

Row | SMILES | inhibition at 100 µM [1, 2] [%] | further results
1 | C/C=C(\NC(=O)C1CC1(C)C)C(=O)O (racemic) [Compound 2, Z-2-(2,2-dimethylcyclopropanecarboxamido)-2-butenoic acid] | 98 | –
2 | CC1(C)CC1C(=O)N/C(=C\CCCC(=O)O)C(=O)O (racemic) [Compound 64] | 99 | –
3 | CCCCC/C=C(\NC(=O)C1CC1(C)C)C(=O)O (racemic) [Z-2-(2,2-dimethylcyclopropanecarboxamido)-2-octenoic acid] | – | activity of resolved isomers ([1]; racemate resolved, dextrorotatory isomer has S-configuration): The activity resides in the dextrorotatory isomer
4 | C/C=C(\NC(=O)C1CC1(C)C)C(=O)O (single isomer, unassigned; (+)) [Compound 2a, (+)-Z-2-(2,2-dimethylcyclopropanecarboxamido)-2-butenoic acid] | 100 | –
5 | CC/C=C(\NC(=O)C1CC1(C)C)C(=O)O (stereo not shown) [Compound 1] | – | % Inhibition at 10^-4 M [1, 2]: 98%
6 | C/C=C(\NC(=O)C1CC1C)C(=O)O (stereo not shown) [Compound 3] | 92 | –
7 | CC/C=C(\NC(=O)CC(C)C)C(=O)O [Compound 4] | 87 | –
8 | C/C=C(\NC(=O)CC(C)CC(C)(C)C)C(=O)O (stereo not shown) [Compound 5] | 81 | –
9 | C/C=C(\NC(=O)C1C(C)C1C)C(=O)O (stereo not shown) [Compound 6] | 83 | –
10 | C/C=C(\NC(=O)C1CCC1)C(=O)O [Compound 8] | 80 | –
11 | C/C=C(\NC(=O)CC1CCC1)C(=O)O [Compound 9] | 83 | –
12 | C/C=C(\NC(=O)C1CC1)C(=O)O [Compound 10, Z-2-cyclopropylcarboxamido-2-butenoic acid] | 97 | Ki [1]: 9000 nM
13 | CCCCC/C=C(\NC(=O)C1CC1(Cl)Cl)C(=O)O (stereo not shown) [Compound 12] | – | Ki [1]: 59 nM
14 | CN(C)C(=N)NCCCCC/C=C(\NC(=O)C1CC1(C)C)C(=O)O (stereo not shown) [Compound 16] | – | Ki [1]: 890 nM
15 | C/C=C(\NC(=O)CC1CC1)C(=O)O [Compound 22] | 64 | –
16 | C/C=C(\NC(=O)C1CCCC1)C(=O)O [Compound 24] | 59 | –
17 | C/C=C(\NC(=O)CCC1CCCC1)C(=O)O [Compound 26] | 56 | –
18 | C/C=C(\NC(=O)CCC1CCCCC1)C(=O)O [Compound 27] | 54 | –
19 | C/C=C(\NC(=O)C(C)C)C(=O)O [Compound 32] | 31 | –
20 | O=C(O)CC/C=C(\NC(=O)C1CC1)C(=O)O [Compound 33] | 90 | –

Row | SMILES | inhibition at 100 µM [1, 2] [%] | further results
21 | C/C=C(\NC(=O)C1CC1C(C)(C)C)C(=O)O (stereo not shown) [Compound 38] | 90 | –
22 | C/C=C(\NC(=O)C1CC1(C)CC)C(=O)O (stereo not shown) [Compound 40] | 100 | –
23 | CC(C)/C=C(\NC(=O)C1CC1(C)C)C(=O)O (stereo not shown) [Compound 41] | 96 | Ki [1]: 1600 nM
24 | C/C=C(\NC(=O)C1CC1(CC)CC)C(=O)O (stereo not shown) [Compound 42] | 98 | –
25 | C/C=C(\NC(=O)C1CC1CC)C(=O)O (stereo not shown) [Compound 43] | 96 | –
26 | C/C=C(\NC(=O)C1CC1(C)C(C)C)C(=O)O (stereo not shown) [Compound 44] | 95 | –
27 | CC/C=C(\NC(=O)C1CC1(C)C)C(=O)O (stereo not shown) [Compound 45] | 98 | –
28 | CC1(C)CC1C(=O)N/C(=C\c1ccccc1)C(=O)O (stereo not shown) [Compound 46] | 100 | –
29 | CCC/C=C(\NC(=O)C1CC1(C)C)C(=O)O (stereo not shown) [Compound 47] | 98 | –
30 | CC(C)C/C=C(\NC(=O)C1CC1(C)C)C(=O)O (stereo not shown) [Compound 48] | 97 | –
31 | CCCC/C=C(\NC(=O)C1CC1(C)C)C(=O)O (stereo not shown) [Compound 49] | 100 | –
32 | CC1(C)CC1C(=O)N/C(=C\CCC(=O)O)C(=O)O (stereo not shown) [Compound 51] | 98 | Ki [1]: 145 nM
33 | CC1(C)CC1C(=O)N/C(=C\CC1CCCCC1)C(=O)O (stereo not shown) [Compound 52] | 100 | –
34 | CC1(C)CC1C(=O)N/C(=C\CCc1ccccc1)C(=O)O (stereo not shown) [Compound 53] | 96 | –
35 | CSCC/C=C(\NC(=O)C1CC1(C)C)C(=O)O (stereo not shown) [Compound 54] | 99 | –
36 | CC1(C)CC1C(=O)N/C(=C\CCS(C)(=O)=O)C(=O)O (stereo not shown) [Compound 55] | 96 | –
37 | CC1(C)CC1C(=O)N/C(=C\Cc1ccccc1)C(=O)O (stereo not shown) [Compound 59] | 98 | Ki [1]: 440 nM
38 | COCC/C=C(\NC(=O)C1CC1(C)C)C(=O)O (stereo not shown) [Compound 61] | 98 | –
39 | CC(C)CC/C=C(\NC(=O)C1CC1(C)C)C(=O)O (stereo not shown) [Compound 63] | 98 | –
40 | CC1(C)CC1C(=O)N/C(=C\CC1CCCO1)C(=O)O (stereo not shown) [Compound 65] | – | Ki [1]: 390 nM

Continued, in another order:

Row | inhibition at 100 µM [1, 2] [%] | SMILES | further results
41 | 91 | C/C=C(\NC(=O)CC(C)C)C(=O)O [Compound 7, Z-2-isovaleramido-2-butenoic acid] | enhancement of systemic antibacterial activity of thienamycin (Staphalococcus aureus): enhanced approximately three-fold
42 | 82 | C/C=C(\NC(=O)CC(C)CC)C(=O)O (stereo not shown) [Compound 11] | –
43 | 75 | C/C=C(\NC(=O)CC(C)(C)C)C(=O)O [Compound 18, Z-2-t-butylacetamido-2-butenoic acid] | –
44 | 72 | C/C=C(\NC(=O)CCCCCCC)C(=O)O [Compound 19, Z-2-octanamido-2-butenoic acid] | –
45 | 69 | C/C=C(\NC(=O)CCC)C(=O)O [Compound 20, Z-2-butyramido-2-butenoic acid] | –
46 | 68 | C/C=C(\NC(=O)CCCC1CCCCC1)C(=O)O [Compound 21] | –
47 | 64 | C/C=C(\NC(=O)CCCC)C(=O)O [Compound 23, Z-2-valeramido-2-butenoic acid] | –
48 | 57 | C/C=C(\NC(=O)CCCCC(C)C)C(=O)O [Compound 25, Z-2-(6-methylheptanamido)-2-butenoic acid] | –
49 | 54 | C/C=C(\NC(=O)CCCCC)C(=O)O [Compound 28, Z-2-hexanamido-2-butenoic acid] | Ki [1]: 39000 nM
50 | 49 | C/C=C(\NC(=O)CCCCCC)C(=O)O [Compound 29] | –
51 | 33 | C/C=C(\NC(=O)C(CC)CCCC)C(=O)O (stereo not shown) [Compound 30, Z-2-(2-Ethylhexanamido)-2-butenoic acid] | –
52 | 13 | C/C=C(\NC(=O)C(CCC)CCC)C(=O)O [Compound 31, Z-2-di-n-propylacetamido-2-butenoic acid] | –
53 | 88 | C/C=C(\NC(=O)CC(C)CCOC)C(=O)O (stereo not shown) [Compound 34] | –
54 | 70 | C/C=C(\NC(=O)CCCCCBr)C(=O)O [Compound 35] | –
55 | 64 | C/C=C(\NC(=O)CCCCCl)C(=O)O [Compound 36, Z-2-(5-chlorovaleramido)-2-butenoic acid] | Ki [1]: 20000 nM
56 | 72 | C/C=C(\NC(=O)CCCc1ccccc1)C(=O)O [Compound 37] | –
57 | 95 | CCCCC/C=C(\NC(=O)CC(C)C)C(=O)O [Compound 39, Z-2-isovaleramido-2-octenoic acid] | –
58 | 100 | CCCCC/C=C(\NC(=O)C1CC1(C)C)C(=O)O (stereo not shown) [Compound 50] | –
59 | 98 | CCCCCC/C=C(\NC(=O)C1CC1(C)C)C(=O)O (stereo not shown) [Compound 56] | Ki [1]: 149 nM
60 | 99 | CCCCCCC/C=C(\NC(=O)C1CC1(C)C)C(=O)O (stereo not shown) [Compound 57] | Ki [1]: 92 nM
61 | 96 | CCCCCCCCCC/C=C(\NC(=O)C1CC1(C)C)C(=O)O (stereo not shown) [Compound 58] | –
